In patent publication US20240092784A1, “CONDENSED HETEROCYCLIC COMPOUND” (NISSAN CHEMICAL CORPORATION, priority 2020, published 2024) one finds IC50 data, which are given here for 24 molecules.

In this experiment the target is human SPR (Homo sapiens (Human), UniProt P35270). Nature of the experiment: Evaluation Example 2: Measurement of human SPR inhibitory activity (seven concentrations, sepiapterin absorbance at 420 nm). The format is biochemical. In a few lines:
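Reactions ran 240 min at room temperature in 100 mM Tris-HCl pH 7.5 with 0.01% BSA. They contained tag-cleaved, E. coli-expressed full-length human SPR (diluted to 150 ng/mL), seven compound concentrations from 0.14 to 100 nM, and sepiapterin/NADPH added as a 120 μM/160 μM solution. Inhibition was calculated from sepiapterin absorbance at 420 nm.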

Setting [1] is: Evaluation Example 2, seven concentrations 0.14 nM to 100 nM, 240 minutes at room temperature, read-out: IC50.
The mark [2] stands for this setting: sepiapterin absorbance, Table 41, read-out: concentration at 50% inhibition of human SPR (IC50).

Structures are written as SMILES. pIC50: −log10 of the molar value. Where a name gives a salt, the structure may show the parent alone. Read-outs that look alike come from different tables or passages of the source.

Sequence of human SPR (P35270 whole entry): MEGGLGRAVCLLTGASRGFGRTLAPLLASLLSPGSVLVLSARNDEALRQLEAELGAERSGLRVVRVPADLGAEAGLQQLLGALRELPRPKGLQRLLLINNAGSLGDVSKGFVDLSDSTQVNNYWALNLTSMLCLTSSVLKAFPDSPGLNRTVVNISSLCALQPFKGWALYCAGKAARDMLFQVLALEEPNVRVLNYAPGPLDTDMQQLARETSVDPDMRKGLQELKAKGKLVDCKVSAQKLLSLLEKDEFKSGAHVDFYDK

Consider `CCN(C)C(=O)/C=C/c1cnn2c(O)c(C(=O)NC3CC3)c(=O)n(CC(C)C)c12` [compound 522, (E)-N-Cyclopropyl-3-(3-(ethyl(methyl)amino)-3-oxoprop-1-en-1-yl)-7-hydroxy-4-isobutyl-5-oxo-4,5-dihydropyrazolo[1,5-a]pyrimidine-6-carboxamide], for which, under setting [1], the pIC50 was 9.11.
On to `CC(C)Cn1c(=O)c(C(=O)NC2CC2)c(O)n2ncc(/C=C/C(=O)N3CC[C@H](F)C3)c12` [compound 454, (S,E)-N-Cyclopropyl-3-(3-(3-fluoropyrrolidin-1-yl)-3-oxoprop-1-en-1-yl)-7-hydroxy-4-isobutyl-5-oxo-4,5-dihydropyrazolo[1,5-a]pyrimidine-6-carboxamide], for which, under setting [1], the pIC50 was 9.12.
The same measure, in the same setting: as for `Cc1nn2c(O)c(C(=O)NC3CC3)c(=O)n(CC(C)C)c2c1/C=C/C(=O)N1C[C@H]2COC[C@H]2C1` [Synthesis Example 628, N-Cyclopropyl-7-hydroxy-4-isobutyl-2-methyl-5-oxo-3-((E)-3-oxo-3-((3aR,6aS)-tetrahydro-1H-furo[3,4-c]pyrrol-5(3H)-yl)prop-1-en-1-yl)-4,5-dihydropyrazolo[1,5-a]pyrimidine-6-carboxamide], the figure is 9.08.
Still for that read-out and setting: as for `CC(C)Cn1c(=O)c(C(=O)NC2CC2)c(O)n2ncc(/C=C/C(=O)N3CCC[C@@H]3C(F)(F)F)c12` [compound 485, (R,E)-N-Cyclopropyl-7-hydroxy-4-isobutyl-5-oxo-3-(3-oxo-3-(2-(trifluoromethyl)pyrrolidine-1-yl)prop-1-en-1-yl)-4,5-dihydropyrazolo[1,5-a]pyrimidine-6-carboxamide], the figure is 8.96.
As to `CC1(Cn2c(=O)c(C(=O)NC3CC3)c(O)n3ncc(/C=C/C(=O)N4C[C@H]5C[C@@H]4CO5)c23)CC1` [Synthesis Example 373], the pIC50 under setting [1] was 9.13.
As for `CC(C)(C)Cn1c(=O)c(C(=O)NC2CC2)c(O)n2nc(-c3cnccc3F)cc12` [Synthesis Example 295, N-Cyclopropyl-2-(4-fluoropyridin-3-yl)-7-hydroxy-4-neopentyl-5-oxo-4,5-dihydropyrazolo[1,5-a]pyrimidine-6-carboxamide], the pIC50 under setting [1] is 8.61.
On to `COC[C@H]1COCCN1C(=O)/C=C/c1cnn2c(O)c(C(=O)NC3CC3)c(=O)n(CC3(F)CC3)c12` [Synthesis Example 382, (S,E)-N-cyclopropyl-4-((1-fluorocyclopropyl)methyl)-7-hydroxy-3-(3-(3-(methoxymethyl)morpholino)-3-oxoprop-1-en-1-yl)-5-oxo-4,5-dihydropyrazolo[1,5-a]pyrimidine-6-carboxamide], for which, under setting [1], the pIC50 was 9.06.
In the case of `C[C@H]1COCCN1C(=O)/C=C/c1cnn2c(O)c(C(=O)NC3CC3)c(=O)n(CC3(C)CC3)c12` [Synthesis Example 369, (S,E)-N-Cyclopropyl-7-hydroxy-4-((1-methylcyclopropyl)methyl)-3-(3-(3-methylmorpholino)-3-oxoprop-1-en-1-yl)-5-oxo-4,5-dihydropyrazolo[1,5-a]pyrimidine-6-carboxamide], the pIC50 under setting [1] was 9.24.
In the case of `CC(C)(C)Cn1c(=O)c(C(=O)NC2CC2)c(O)n2nc3c(c12)COC(=O)N3` [Synthesis Example 400, N-Cyclopropyl-8-hydroxy-5-neopentyl-2,6-dioxo-1,2,5,6-tetrahydro-4H-pyrimido[1′,2′:1,5]pyrazolo[3,4-d][1,3]oxazine-7-carboxamide], the pIC50 under setting [1] is 9.15.
Same read-out and setting: as for `Cc1nn2c(O)c(C(=O)NC3CC3)c(=O)n(CC(C)C)c2c1/C=C/C(=O)N1CC[C@H](C(C)(C)O)C1` [Synthesis Example 623, (S,E)-N-Cyclopropyl-7-hydroxy-3-(3-(3-(2-hydroxypropan-2-yl)pyrrolidine-1-yl)-3-oxoprop-1-en-1-yl)-4-isobutyl-2-methyl-5-oxo-4,5-dihydropyrazolo[1,5-a]pyrimidine-6-carboxamide], the figure is 8.90; as for `CC(C)Cn1c(=O)c(C(=O)NC2CC2)c(O)n2ncc(/C=C/C(=O)N3CCOCC3CC(F)(F)F)c12` (single isomer, unassigned; isomer b) [compound 551, (E)-N-Cyclopropyl-7-hydroxy-4-isobutyl-5-oxo-3-(3-oxo-3-(3-(2,2,2-trifluoroethyl)morpholino)prop-1-en-1-yl)-4,5-dihydropyrazolo[1,5-a]pyrimidine-6-carboxamide (Isomer B)], 9.08; as for `CC(C)(C)Cn1c(=O)c(C(=O)NC2CC2)c(O)n2nc(Nc3cnc(C(=O)NCC(C)(C)O)cn3)cc12` [Synthesis Example 354, N-Cyclopropyl-7-hydroxy-2-((5-((2-hydroxy-2-methylpropyl)carbamoyl)pyrazin 2-yl)amino)-4-neopentyl-5-oxo-4,5-dihydropyrazolo[1,5-a]pyrimidine-6-carboxamide], 9.07.
With `Cc1nn2c(O)c(C(=O)NC3CC3)c(=O)n(CC(C)C)c2c1/C=C/C(=O)N1CCc2cc(C#N)ccc21` [Synthesis Example 669, (E)-3-(3-(5-Cyanoindolin-1-yl)-3-oxoprop-1-en-1-yl)-N-cyclopropyl-7-hydroxy-4-isobutyl-2-methyl-5-oxo-4,5-dihydropyrazolo[1,5-a]pyrimidine-6-carboxamide], under setting [1], the pIC50 was 8.74.
For the molecule `Cc1nn2c(O)c(C(=O)NC3CC3)c(=O)n(CC(C)C)c2c1/C=C/C(=O)N1[C@@H](C)CC[C@@H]1C` [Synthesis Example 617, N-Cyclopropyl-3-((E)-3-((2S,5S)-2,5-dimethylpyrrolidin-1-yl)-3-oxoprop-1-en-1-yl)-7-hydroxy-4-isobutyl-2-methyl-5-oxo-4,5-dihydropyrazolo[1,5-a]pyrimidine-6-carboxamide], the pIC50 under setting [1] was 8.98.
Consider `Cc1nn2c(O)c(C(=O)NC3CC3)c(=O)n(CC(C)C)c2c1/C=C/C(=O)N1C[C@@H](F)[C@@H](F)C1` [Synthesis Example 648, N-Cyclopropyl-3-((E)-3-(cis-3,4-difluoropyrrolidin-1-yl)-3-oxoprop-1-en-1-yl)-7-hydroxy-4-isobutyl-2-methyl-5-oxo-4,5-dihydropyrazolo[1,5-a]pyrimidine-6-carboxamide], for which the pIC50 under setting [1] was 9.13.
Take `COCCN(C)C(=O)/C=C/c1c(C)nn2c(O)c(C(=O)NC3CC3)c(=O)n(CC(C)C)c12` [Synthesis Example 750, (E)-N-Cyclopropyl-7-hydroxy-4-isobutyl-3-(3-((2-methoxyethyl)(methyl)amino)-3-oxoprop-1-en-1-yl)-2-methyl-5-oxo-4,5-dihydropyrazolo[1,5-a]pyrimidine-6-carboxamide]: the pIC50 under setting [2] is 9.02.
For `Cc1nn2c(O)c(C(=O)NC3CC3)c(=O)n(CC(C)C)c2c1/C=C/C(=O)N1CCc2cc(F)ccc21` [Synthesis Example 668, (E)-N-Cyclopropyl-3-(3-(5-fluoroindolin-1-yl)-3-oxoprop-1-en-1-yl)-7-hydroxy-4-isobutyl-2-methyl-5-oxo-4,5-dihydropyrazolo[1,5-a]pyrimidine-6-carboxamide], under setting [1], the pIC50 is 8.10.
For `Cc1nn2c(O)c(C(=O)NC3CC3)c(=O)n(CC(C)C)c2c1/C=C/C(=O)N1CCN(C)C[C@@H]1C` [Synthesis Example 701, (S,E)-N-Cyclopropyl-3-(3-(2,4-dimethylpiperazin-1-yl)-3-oxoprop-1-en-1-yl)-7-hydroxy-4-isobutyl-2-methyl-5-oxo-4,5-dihydropyrazolo[1,5-a]pyrimidine-6-carboxamide], under setting [2], the pIC50 was 9.01.
Turning to `CC(C)Cn1c(=O)c(C(=O)NC2CC2)c(O)n2ncc(/C=C/C3CCN(CC(F)(F)F)CC3)c12` [Synthesis Example 249, (E)-N-Cyclopropyl-7-hydroxy-4-isobutyl-5-oxo-3-(2-(1-(2,2,2-trifluoroethyl)piperidin-4-yl)vinyl)-4,5-dihydropyrazolo[1,5-a]pyrimidine-6-carboxamide], the pIC50 under setting [1] is 8.57.
In the case of `Cc1nn2c(O)c(C(=O)NC3CC3)c(=O)n(CC(C)C)c2c1/C=C/C(=O)N1CCC(C(F)(F)F)C1` (stereo not drawn) [Synthesis Example 614, (E)-N-Cyclopropyl-7-hydroxy-4-isobutyl-2-methyl-5-oxo-3-(3-oxo-3-(3-(trifluoromethyl)pyrrolidin-1-yl)prop-1-en-1-yl)-4,5-dihydropyrazolo[1,5-a]pyrimidine-6-carboxamide], the pIC50 under setting [1] is 8.83.
For the molecule `CC(C)Cn1c(=O)c(C(=O)NC2CC2)c(O)n2ncc(/C=C/C(=O)N3CCCC34CCN(C(=O)OC(C)(C)C)CC4)c12` [Synthesis Example 733, Tert-butyl (E)-1-(3-(6-(cyclopropylcarbamoyl)-7-hydroxy-4-isobutyl-5-oxo-4,5-dihydropyrazolo[1,5-a]pyrimidin-3-yl)acryloyl)-1,8-diazaspiro[4.5]decane-8-carboxylate], under setting [2], the pIC50 was 8.67.
As to `CC(C)Cn1c(=O)c(C(=O)NC2CC2)c(O)n2ncc(C(=O)NCc3cccnc3)c12` [Synthesis Example 216, N6-Cyclopropyl-7-hydroxy-4-isobutyl-5-oxo-N3-(pyridin-3-ylmethyl)-4,5-dihydropyrazolo[1,5-a]pyrimidine-3,6-dicarboxamide], the pIC50 under setting [1] is 9.11.
The same measure, in the same setting: as for `Cc1nn2c(O)c(C(=O)NC3CC3)c(=O)n(CC(C)C)c2c1/C=C/C(=O)N1CCOc2ncccc21` [Synthesis Example 676, (E)-N-Cyclopropyl-3-(3-(2,3-dihydro-1H-pyrido[2,3-b][1,4]oxazin-1-yl)-3-oxoprop-1-en-1-yl)-7-hydroxy-4-isobutyl-2-methyl-5-oxo-4,5-dihydropyrazolo[1,5-a]pyrimidine-6-carboxamide], the figure is 9.04; as for `CC(C)Cn1c(=O)c(C(=O)NC2CC2)c(O)n2ncc(C3=CCCNC3)c12` [Synthesis Example 239, N-Cyclopropyl-7-hydroxy-4-isobutyl-5-oxo-3-(1,2,5,6-tetrahydropyridin-3-yl)-4,5-dihydropyrazolo[1,5-a]pyrimidine-6-carboxamide hydrochloride], 9.14.
